From patent US4853398A, “Leukotriene antagonists and use thereas” (Eli Lilly and Company, priority 1987, dated 1989)

System: LTD4 evoked ileal contractions
Assay: LTD4 antagonism: inhibition of LTD4 evoked ileal contractions (isolated guinea pig ileum)
Design: species or system guinea pig (male, Hartley)
Details: for -log IC50: 50% inhibition of LTD4 responses, interpolated by linear regression from 2-4 concentrations; for Percent inhibition of LTD4 evoked ileal contractions: isolated ileum, five minute exposure
Experimental: Male, Hartley guinea pigs weighing 200-450 grams were killed by decapitation. A section of terminal ileum was removed, the lumen cleaned, and the tissue divided into 2.5 cm. segments. The ilea were mounted in 10 ml. tissue baths containing Krebs-bicarbonate solution of the following composition in mmoles/liter: KCl, 4.6; CaCl2.2H2 O, 1.2; KH2 PO4, 1.2; MgSO4.7H2 O, 1.2; NaCl, 118.2; NaHCO3, 24.8; and dextrose, 10.0. The bath fluid was maintained at 37° C. and aerated with 95 percent oxygen and 5 percent CO2. In addition, the buffer contained 1×10^-6 M atropine to reduce ileal spontaneous activity. Isometric measurements were made with a Grass FTO3C force-displacement transducer and recorded on a Grass polygraph as change in grams of force. A passive force of 0.5 g. was applied to the tissues. After an appropriate equilibration period, single submaximal control responses to pure LTD4 were obtained. Following a five minute exposure of the ileum to an experimental drug, the control concentration of LTD4 was added to the tissue bath. The response of the ileum to LTD4 in the presence of the drug was compared to the response in the absence of the drug. Various degrees of LTD4 antagonism were obtained using 2-4 different concentrations of an experimental compound on a single ileum.

[1] = compound concentration 3 × 10^-7 M
[2] = compound concentration 3 × 10^-8 M
[3] = compound concentration 3 × 10^-9 M
[4] = compound concentration 1 × 10^-7 M
[5] = compound concentration 1 × 10^-8 M

SMILES | -log IC50 | Percent inhibition of LTD4 evoked ileal contractions (compound concentration 1 × 10^-9) | Percent inhibition of LTD4 evoked ileal contractions [1] | Percent inhibition of LTD4 evoked ileal contractions [2] | Percent inhibition of LTD4 evoked ileal contractions [3] | Percent inhibition of LTD4 evoked ileal contractions [4] | Percent inhibition of LTD4 evoked ileal contractions [5]
CCCc1c(COc2ccc(C(=O)c3cccc(-c4nnn[nH]4)c3)cc2)ccc(C(C)=O)c1O [Example 1, 1-[2-Hydroxy-3-propyl-4-({4-[3-(1H-tetrazol-5-yl)benzoyl]phenoxy}methyl)phenyl]ethanone] | 8.58 | 21% | 98% | 80% | 53% |  | 
CCCc1c(COc2ccc(C(O)c3cccc(-c4nnn[nH]4)c3)cc2)ccc(C(C)=O)c1O (stereo not shown) [Example 3, 1-{2-Hydroxy-4-[(4-{hydroxy[3-(1H-tetrazol-5-yl)-phenyl]methyl}phenoxy)methyl]-3-propylphenyl}ethanone] | 7.89 |  |  | 75% |  | 81% | 40%
CCCc1c(COc2ccc(C(=O)c3ccc(-c4nnn[nH]4)cc3)cc2)ccc(C(C)=O)c1O [Example 2, 1-[2-Hydroxy-3-propyl-4-({4-[4-(1H-tetrazol-5-yl)-benzoyl]phenoxy}methyl)phenyl]ethanone] | 8.29 |  |  |  | 32% |  | 72%
CCCc1c(COc2ccc(Oc3ccc(-c4nnn[nH]4)cc3)cc2)ccc(C(C)=O)c1O [Example 4, 1-[2-Hydroxy-3-propyl-4-({4-[4-(1H-tetrazol-5-yl)-phenoxy]phenoxy}methyl)phenyl]ethanone] | 7.08 |  | 80% | 25% |  | 53% | 
